# Columns and labels:
# active GLP-1 in plasma [1] = experiment: GLP-1 secretion-stimulating action by combined use of DPP4 inhibitor and sweetener (1), Example 2; assay type: in vivo, mouse; conditions: C57BL/6J mice
# Experimental: Male SD(CD)/Crj rats (Charles River Laboratories Japan, Inc.) (6-week-old at time of use) or male C57BL/6J mice (Clea Japan, Inc.) (9-week-old at time of use) were used in the test.
# These study animals were used in the test after first grouping according to body weight. The animals were orally administered (10 mL/kg) a test DPP4 inhibitor (or purified water as a control). At 30 minutes after administration, the animals were then orally administered (10 mL/kg) a solution of a test sweetener (or purified water as a control) followed by collecting blood samples at 0, 30, 60, 180 and 300 minutes after administration. These samples were then measured for concentrations of active GLP-1 in plasma.
# Measurement of plasma active GLP-1 concentrations was carried out in the same manner as (1) of Example 1 above.
# The measurement results were tested for the presence of a significant difference between groups by comparing the sweetener-loaded groups with the control group using Dunnett's multiple comparison test (two-sided test). Here, a P value less than 5% was considered statistically significant, and statistical analysis software (EXSAS: Biological Experimental Data Statistical Analysis System, Arm Systex Co., Ltd.) was used to analyze the data.
# C57BL/6J mice were used for the study animals. […]
# [2] = Body weight-reducing test using DIO (diet-induced obesity) mice (1), Example 3; assay type: in vivo, mouse; conditions: Compound A alone 10 mg/100 g in-feed; high fat diet-fed C57BL/6J mice
# Experimental: High fat diet-fed, male C57BL/6J mice (Clea Japan, Inc.) were used in the test.
# Fed a high fat diet was carried out by allowing 3-week-old, male C57BL/6J mice (Clea Japan, Inc.) to free access to a high-fat diet having 37.2 w/w % fat content and 5.578 kcal/g calorie level (available from Oriental Yeast Co., Ltd.) for feed. Normal diet control mice were allowed free access to CRF-1 (fat content: 5.7 w/w %, calorie level: 3.59 kcal/g, available from Oriental Yeast Co., Ltd.).
# The mice were used in the test after housing to age 39 weeks while fed a high fat diet in this manner.
# These study animals were used in the test after first grouping according to body weight and blood sugar level.
# The animals were administered test DPP4 inhibitor and test sweetener either orally or in-feed. […]
# Body weight and food intake were measured over time after the start of administration of the test substances.
# Moreover, in the case body weight-reducing effect was observed, body composition was measured using a laboratory mouse X-ray body fat percentage measuring device (PIXImus2, GE Medical Systems Inc.) under pentobarbital anesthesia (70 mg/kg, i.p.). […]
# [3] = administration to mice; JP H6-65080; cited from earlier work
# GLP-1 = conditions: Shima et al., Acta Endocrinologica 1990; cited from earlier work
# active GLP-1 in plasma [4] = experiment: GLP-1 secretion-stimulating action by combined use of DPP4 inhibitor and sweetener (2), Example 4; assay type: in vivo, mouse; conditions: 1 hour after dosing, relative to 100 for Compound A′ and fructooligosaccharide 6 g/kg, C57BL/6J mice
# Experimental: Male C57BL/6J mice (Clea Japan, Inc.) (7-week-old at time of use) were used in the test.
# These study animals were used in the test after first fasting starting on the night prior to the test and then grouping according to body weight. The animals were orally administered test DPP4 inhibitor (or purified water as a control) (10 mL/kg). At 30 minutes after administration, the animals were then orally administered (10 mL/kg) a solution of test sweetener (or purified water as a control) followed by collecting blood samples at 0, 30, 60, 180 and 300 minutes after administration. These samples were then measured for concentrations of active GLP-1 in plasma.
# Measurement of plasma active GLP-1 concentrations and analysis and testing of the measurement results were carried out in the same manner as (1) of Example 1 above.
# Fructooligosaccharide (Meiji Seika Kaisha Ltd.), kestose (Meiji Seika Kaisha Ltd., GF2), raffinose (Wako Pure Chemical Industries, Ltd.), melibiose (Wako Pure Chemical Industries, Ltd.), xylooligosaccharide (Suntory Ltd.), xylose (Wako Pure Chemical Industries, Ltd.), xylitol (Wako Pure Chemical Industries, Ltd.), sorbitol (Wako Pure Chemical Industries, Ltd.), D-mannitol (Wako Pure Chemical Industries, Ltd.), erythritol (Wako Pure Chemical Industries, Ltd.), maltitol (Hayashibara Biochemical Laboratories, Inc.), sucralose (San-Ei Gen F.F.I., Inc.) or acesulfame K (Wako Pure Chemical Industries, Ltd.) was used as sweetener and administered orally (10 mL/kg) at 6 g/kg, 3 g/kg or 1 g/kg.
# In addition, (2S)-2-cyano-1-[trans-4-(dimethylaminocarbonyl)cyclohexylamino]acetylpyrrolidine benzenesulfonate (hereafter referred to as Compound A′) as DPP4 inhibitor (or purified water as a control) was used at 10 mg/kg and administered orally (10 mL/kg).
# Blood active GLP-1 level-increasing action was tested for the cases of combined use of DPP4 inhibitor and each type of sweetener in accordance with the method described in (1) above (n=4 to 5 animals per group).
# Blood active GLP-1 concentrations (1 hour after dosing) in the groups dosed with both each type of sweetener (6 g/kg, 3 g/kg or 1 g/kg) and Compound A′ (10 mg/kg) were represented as relative values with respect to blood active GLP-1 concentrations (1 hour after dosing) in the group dosed with fructooligosaccharide (6 g/kg) and Compound A′.
# active GLP-1 in plasma [5] = experiment: GLP-1 secretion-stimulating action of sweetener in DPP4-deficient rats (blood active GLP-1 level-increasing action), Example 1; assay type: in vivo, rat; conditions: sweetener alone 3 to 6 g/kg/10 mL orally; DPP4-deficient F344DucrlCrlj rats
# Experimental: Male […] rats (Charles River Laboratories Japan, Inc.) (7 to 10-week-old at time of use) were used for the study animals. […] rats are known to be rats of a strain having a spontaneous DPP4 gene deficiency (Watanabe, et al., Experientia, 1987, 43:400-401). These study animals were used in the test after fasting starting on the night prior to the test and grouping according to body weight. The animals were orally administered (10 mL/kg) a solution of the test sweetener (or purified water as a control) followed by collecting blood samples from the tip of the tail at 0, 30, 60, 180 and 360 minutes after dosing. These samples were then measured for concentrations of active GLP-1 in plasma. Measurement of plasma active GLP-1 concentrations was carried out in the following manner. […] Plasma GLP-1 concentrations were then measured using the Bio-Plex Suspension Array System (Rat Endocrine LINCOplex Kit; available from Linco Research, Inc.) or the Glucagon-like Peptide-1 (Active) ELISA KitTM (available from Linco Research, Inc.; active GLP-1 measurement kit). The measurement results were tested for the presence of a significant difference between groups by comparing the sweetener-loaded group with the control group using Dunnett's multiple comparison test (two-sided test). […] Biological Experimental Data Statistical Analysis System, from Arm Systex Co., Ltd.) was used to analyze the data.
# [6] = sweetener 6 g/kg orally combined with Compound A′ 10 mg/kg orally
structure (smiles),measurement,setting,value
"CN(C)C(=O)[C@H]1CC[C@H](NCC(=O)N2CCC[C@H]2C#N)CC1.Cl (relative stereo) [Compound A, (2S)-2-cyano-1-[trans-4-(dimethylaminocarbonyl)cyclohexylamino]acetylpyrrolidine hydrochloride]",plasma active GLP-1 levels,active GLP-1 in plasma [1]; Compound A 10 mg/kg orally alone,no increases in plasma active GLP-1 levels observed
same,body weight as compared with the control group,[2],no changes in body weight
O=C[C@H](O)[C@@H](O)[C@@H](O)CO [L-arabinose],weight gain,[3],inhibited weight gain in mice
"OC[C@@H](O)[C@@H](O[C@H]1O[C@H](CO)[C@@H](O)[C@H](O)[C@H]1O)[C@H](O)[C@@H](O)CO [Maltitol, α-D-glucopyranosyl-(1→4)-D-glucitol]",blood GLP-1 levels following administration,GLP-1,blood GLP-1 levels are increased
same,Plasma active GLP-1 concentration (relative value),active GLP-1 in plasma [4]; [6],422
"OC[C@@H](O)[C@H](O)[C@@H](O)CO [Xylitol, xylitol]",levels of active GLP-1 in plasma as compared with the control group,active GLP-1 in plasma [5],remarkably high values
same,Plasma active GLP-1 concentration (relative value),active GLP-1 in plasma [4]; sweetener 3 g/kg orally combined with Compound A′ 10 mg/kg orally,272
same,Plasma active GLP-1 concentration (relative value),active GLP-1 in plasma [4]; [6],774
"O=C[C@H](O)[C@@H](O)[C@H](O)CO [Xylose, xylose]",levels of active GLP-1 in plasma in comparison with the control group,"active GLP-1 in plasma [1]; sweetener 6 g/kg orally combined with Compound A 10 mg/kg orally, fructooligosaccharide: at 30, 60, 180 and 300 minutes",remarkable increases in plasma active GLP-1 levels were observed
same,levels of active GLP-1 in plasma as compared with the control group,active GLP-1 in plasma [5],remarkably high values
same,Plasma active GLP-1 concentration (relative value),active GLP-1 in plasma [4]; [6],597
